Reference: US8871754B2, “Compounds and compositions for the treatment of parasitic diseases” (IRM LLC, priority 2012, dated 2014)

Experiments:
[1] = test system: P. falciparum (NF54 or 3D7 strain) in infected human erythrocytes; experiment: Assay for P. falciparum proliferation in infected human blood cells (SYBR Green); type: cell-based; details: Plasmodium falciparum, Erythrocyte; NF54 or 3D7 strain, 72 hours, SYBR Green fluorescence; read-out: EC50 (nM), inhibitory efficacy in delaying P. falciparum proliferation in infected human blood cells
Description: Assay for P. falciparum Proliferation in Infected Human Blood Cells
Compounds of the invention can be assayed to measure their capacity to inhibit proliferation of P. falciparum parasitemia in infected red blood cells. This parasite proliferation assay measures the increase in parasite DNA content using a DNA intercalating dye, SYBR Green® (INVITROGEN®) which has a high affinity for double stranded DNA.
NF54 or 3D7 P. falciparum strain is grown in complete culturing media until parasitemia reaches 3% to 8% with O+ human erythrocytes. […] 20 μl of screening media is dispensed into 384 well assay plates. 50 nl of compounds of the invention (in DMSO), including antimalarial controls (mefloquine, pyrimethamine and artemisinin), are then transferred into the assay plates, as well as DMSO alone to serve as a negative control for inhibition. Then 30 μl of a suspension of a NF54 or 3D7 P. falciparum infected erythrocytes in screening media is dispensed into the assay plates such that the final hematocrit is 2.5% with a final parasitemia of 0.3%. The plates are placed in a 37° C. incubator for 72 hours in a low oxygen environment containing 93% N2, 4% CO2, and 3% O2 gas mixture. 10 μl of lysis buffer (saponin, triton-X, EDTA) containing a 10× solution of SYBR Green I® in RPMI media is dispensed into the plates. The plates are lidded and kept at room temperature overnight for the lysis of the infected red blood cells. The fluorescence intensity is measured (excitation […], emission 530 nm) using the Envision™ system (Perkin Elmer). The percentage inhibition of 50%, […], is calculated for each compound.

[2] = test system: P. yoelii sporozoites in HepG2-A16-CD81EGFP cells; experiment: P. yoelii sporozoite invasion assay (proliferation of parasite in infected liver cells, immunofluorescence); type: cell-based; details: Plasmodium yoelii, 48 hours, parasite area by immunofluorescence, read-out: EC50 (nM), inhibitory efficacy by the P. yoelii sporozoite invasion assay
Source text: Assay for Profiferation of Parasite in Infected Liver Cells
Compounds of the invention can be assayed to measure their capacity to inhibit proliferation of parasites in liver cells. The proliferation is quantified by determine the number of infected cells by immunofluorescence.
Due to the difficulty of successfully infecting immortalized human liver cell lines with the human malaria sporozoites (liver-stage parasite), rodent malaria sporozoites from Plasmodium yoelii (17XNL) and P. berghei (ANKA) are the preferred surrogate. Sporozoites are obtained from Anopheles stephensi mosquitoes supplied by the New York University Insectary, which ships the malaria-infected mosquitoes 10-13 days following the ingestion of an infective blood meal.
A transgenic HepG2 cell line expressing the tetraspanin CD81 receptor (HepG2-A16-CD81^EGFP) is used to increase the infectivity rate of rodent-malaria sporozoites into human cells. HepG2-A16-CD81^EGFP cells are stably transformed to express a GFP-CD81 fusion protein. A continuous in vitro culture of this line was maintained at 37° C. in 4% CO2 in complete media (CM) which contains: DMEM (Invitrogen, Carlsbad, USA) supplemented with 10% FCS, 0.29 mg/ml glutamine, 100 units penicillin and 100 μg/ml streptomycin (SigmaAldrich, USA).
P. yoelii Sporozoite Invasion Assay
Twenty to twenty-six hours prior to sporozoite infection, 7.5×10^3 HepG2-A16-CD81^EGFP cells are seeded into 384-well plates (Aurora 384 IQ-EB black plates with clear bottoms; 50 μl of 1.5×10^5 cells/ml in CM). These plates are incubated at 37° C. with 4% CO2 overnight. Two hours prior to infection, 50 nl of compound dissolved in DMSO (0.1% final DMSO concentration per well) were transferred with a PinTool (GNF Systems) into the assay plates (10 μM final concentration). A 1:3 serial dilution of atovaquone (10 μM at the highest final concentration) and wells treated only with DMSO were used as positive and negative controls, respectively.
Freshly dissected salivary glands from infected mosquitoes were homogenized in a glass tissue grinder, filtered twice through Nylon cell strainers (40 μm pore size, BD Falcon) and counted using a hemocytometer. The assay plate with HepG2-A16-CD81^EGFP cells and compound were then infected with 8×10^3 sporozoitesper well and the plates are subjected to a centrifugal force of 650×g to pellet the sporozoites onto the liver cell monolayer. The assay plate is incubated at 37° C. for 2 hours to permit sporozoite invasion, then the media is aspirated from the media plate, and replaced with 50 μl CM (containing a 5× concentration of penicillin/streptomycin; 500 units penicillin and 0.5 mg streptomycin per ml) per well. 50 nl of compound is re-introduced by PinTool and the assay plate incubated for 48 hours at 37° C. before quantification of infected cells by immunofluorescence.
Atovaquone and uninfected wells were used as controls on each plate. Two replicate plates are tested for each assay.
Immunofluorescence Quantification of Exo-Erythrocytic Forms (EEFs)
After fixing the cells by addition of 12.5 μl of 20% solution of paraformaldehyde (EMS, Hatfield, USA) to each assay well (4% final formaldehyde concentration), membranes were permeabilized with 0.5% Triton-X-100 (Thermo Fisher Scientific) and EEFs were stained using a mouse polyclonal serum raised against the Plasmodium yoelii heat shock protein 70 (PyHSP70), a DyLight 649 goat anti-mouse IgG, Fc(gamma) fragment specific secondary antibody (Jackson Immuno Research, Cat#115-495-071) and the Hoechst 33342 nucleic acid dye (Invitrogen, Carlsbad, USA). Stained EEFs were then quantified using the Opera Confocal High Content Screening System (Perkin Elmer, Waltham, USA). Images were collected using a 20× objective lens (20×/0.45 NA, LWD Plan Fluor, Olympus) at a binning of 2, using a 365 nm Xeon arc lamp illumination to detect the Hoechst-labeled nuclei and 635 nm laser line to excite DyLight649-labeled parasites. […]

Compound	EC50 [1] [nM]	EC50 [2] [nM]
CN(C(=O)c1ccn2ncc(-c3ccc(C(F)(F)F)cc3)c2c1)c1ccc(C#N)cc1 [Example 1, N-(4-cyanophenyl)-N-methyl-3-(4-(trifluoromethyl)phenyl)pyrazolo[1,5-a]pyridine-5-carboxamide]	8	7.3
CN(C(=O)c1ccn2ncc(-c3ccc(C(F)(F)F)cc3)c2c1)c1ccc(C#N)cn1 [Example 13, N-(5-cyanopyridin-2-yl)-N-methyl-3-(4-(trifluoromethyl)phenyl)pyrazolo[1,5-a]pyridine-5-carboxamide]	8	17.9
CN(C(=O)c1ccn2ncc(-c3ccc(C(N)=O)cc3)c2c1)c1ccc(C#N)cc1 [Example 19, 3-(4-carbamoylphenyl)-N-(4-cyanophenyl)-N-methylpyrazolo[1,5-a]pyridine-5-carboxamide]	1	4.3
CN(C(=O)c1ccn2ncc(-c3ccc(C(N)=O)cc3)c2c1)c1ccc(F)cc1 [Example 20, 3-(4-carbamoylphenyl)-N-(4-fluorophenyl)-N-methylpyrazolo[1,5-a]pyridine-5-carboxamide]	9	13.5
CN(C(=O)c1ccn2ncc(-c3ccc(C(F)(F)F)cn3)c2c1)c1ccc(C#N)cn1 [Example 25, N-(5-cyanopyridin-2-yl)-N-methyl-3-(5-(trifluoromethyl)109yridine-2-yl)pyrazolo[1,5-a]pyridine-5-carboxamide]	7	229
CN(C(=O)c1ccn2ncc(-c3ccc(C(N)=O)cn3)c2c1)c1ccc(C#N)cc1 [Example 27, 3-(5-carbamoylpyridin-2-yl)-N-(4-cyanophenyl)-N-methylpyrazolo[1,5-a]pyridine-5-carboxamide]	10	201
CN(C(=O)c1ccc(C#N)cc1)c1ccn2ncc(-c3ccc(C(F)(F)F)cc3)c2c1 [Example 28, 4-cyano-N-methyl-N-(3-(4-(trifluoromethyl)phenyl)pyrazolo[1,5-a]pyridine-5-yl)benzamide]	7	23.2
CN(C(=O)c1ccn2ncc(-c3ccc(C(N)=O)cc3)c2c1)c1ccc(C#N)cn1 [Example 32, 3-(4-carbamoylphenyl)-N-(5-cyanopyridin-2-yl)-N-methylpyrazolo[1,5-a]pyridine-5-carboxamide]	1	8
CN(C(=O)c1ccn2ncc(-c3cnc(N)c(C(F)(F)F)c3)c2c1)c1ccc(C#N)cn1 [Example 84, 3-(6-amino-5-(trifluoromethyl)pyridin-3-yl)-N-(5-cyanopyridin-2-yl)-N-methylpyrazolo[1,5-a]pyridine-5-carboxamide]	6	–
CN(C(=O)c1ccn2ncc(-c3cnc(N)c(C#N)c3)c2c1)c1ccc(C#N)cn1 [Example 85, 3-(6-amino-5-cyanopyridin-3-yl)-N-(5-cyanopyridin-2-yl)-N-methylpyrazolo[1,5-a]pyridine-5-carboxamide]	16	–
CN(C(=O)c1ccn2ncc(-c3cnc(N)c(Cl)c3)c2c1)c1ccc(C#N)cn1 [Example 86, 3-(6-amino-5-chloropyridin-3-yl)-N-(5-cyanopyridin-2-yl)-N-methylpyrazolo[1,5-a]pyridine-5-carboxamide]	10	–

Further lines, with some results ahead:

EC50 [1] [nM]	Compound	EC50 [2] [nM]
52	CNC(=O)c1ccc(-c2cnn3ccc(C(=O)N4c5ccc(F)cc5OCC4C)cc23)cc1 (stereo not drawn) [Example 74, 4-(5-(7-fluoro-3-methyl-3,4-dihydro-2H-benzo[b][1,4]oxazine-4-carbonyl)pyrazolo[1,5-a]pyridin-3-yl)-N-methylbenzamide]	–
82	CNC(=O)c1ccc(-c2cnn3ccc(C(=O)N(c4ccc(C#N)cn4)C4COC4)cc23)cc1 [Example 76, N-(5-cyanopyridin-2-yl)-3-(4-(methylcarbamoyl)phenyl)-N-(oxetan-3-yl)pyrazolo[1,5-a]pyridine-5-carboxamide]	–
146	CC(Cn1cccn1)N(C(=O)c1ccn2ncc(-c3ccc(C(N)=O)cc3)c2c1)c1ccc(C#N)cn1 (stereo not drawn) [Example 77, N-(1-(1H-pyrazol-1-yl)propan-2-yl)-3-(4-carbamoylphenyl)-N-(5-cyanopyridin-2-yl)pyrazolo[1,5-a]pyridine-5-carboxamide]	–
7	CN(C(=O)c1ccn2ncc(-c3cnc(N)c(F)c3)c2c1)c1ccc(C#N)cc1 [Example 79, 3-(6-amino-5-fluoropyridin-3-yl)-N-(4-cyanophenyl)-N-methylpyrazolo[1,5-a]pyridine-5-carboxamide]	–
824	Cc1cc(-c2cnn3ccc(C(=O)N(C)c4ccc(C#N)cc4)cc23)cc(C)c1N [Example 80, 3-(4-amino-3,5-dimethylphenyl)-N-(4-cyanophenyl)-N-methylpyrazolo[1,5-a]pyridine-5-carboxamide]	–
36	Cc1cc(-c2cnn3ccc(C(=O)N(C)c4ccc(C#N)cc4)cc23)cnc1N [Example 81, 3-(6-amino-5-methylpyridin-3-yl)-N-(4-cyanophenyl)-N-methylpyrazolo[1,5-a]pyridine-5-carboxamide]	–
1160	CN(C(=O)c1ccn2ncc(-c3ccc(C(N)=O)cc3)c2c1)C1CCC(C#N)CC1 (stereo not drawn) [Example 82, 3-(4-carbamoylphenyl)-N-(4-cyanocyclohexyl)-N-methylpyrazolo[1,5-a]pyridine-5-carboxamide]	–
4	CN(C(=O)c1ccn2ncc(-c3cnc(N)nc3)c2c1)c1ccc(C#N)cc1 [Example 83, 3-(2-aminopyrimidin-5-yl)-N-(4-cyanophenyl)-N-methylpyrazolo[1,5-a]pyridine-5-carboxamide]	–
41	CN(C)C(=O)c1cc(-c2cnn3ccc(C(=O)N(C)c4ccc(C#N)cn4)cc23)cnc1N [Example 87, 3-(6-amino-5-(dimethylcarbamoyl)pyridin-3-yl)-N-(5-cyanopyridin-2-yl)-N-methylpyrazolo[1,5-a]pyridine-5-carboxamide]	–
83	COc1cc(-c2cnn3ccc(C(=O)N(C)c4ccc(C#N)cn4)cc23)cnc1N [Example 88, 3-(6-amino-5-methoxypyridin-3-yl)-N-(5-cyanopyridin-2-yl)-N-methylpyrazolo[1,5-a]pyridine-5-carboxamide]	–
6	CN(C(=O)c1ccn2ncc(-c3ccc(C(N)=O)cc3)c2c1)c1ccc(Cl)cc1C=O [Example 89, 3-(4-carbamoylphenyl)-N-(4-chloro-2-formylphenyl)-N-methylpyrazolo[1,5-a]pyridine-5-carboxamide]	–
